From doi:10.1101/2025.04.16.649181, “Design of peptide-based PAC1 antagonists combining molecular dynamics simulations and a biologically relevant cell-based assay” (bioRxiv, 2025) come the findings set out here.

Test [1] deals with T1, PAC1 (endogenous, mainly PAC1null, SH-SY5Y) (Homo sapiens, UniProt P41586).
T1 construct: Neuroblastoma SH-SY5Y cells endogenously xpressing hPAC1 and engineered to express CBS; endogenous in cells
T1 sequence (P41586 21-468): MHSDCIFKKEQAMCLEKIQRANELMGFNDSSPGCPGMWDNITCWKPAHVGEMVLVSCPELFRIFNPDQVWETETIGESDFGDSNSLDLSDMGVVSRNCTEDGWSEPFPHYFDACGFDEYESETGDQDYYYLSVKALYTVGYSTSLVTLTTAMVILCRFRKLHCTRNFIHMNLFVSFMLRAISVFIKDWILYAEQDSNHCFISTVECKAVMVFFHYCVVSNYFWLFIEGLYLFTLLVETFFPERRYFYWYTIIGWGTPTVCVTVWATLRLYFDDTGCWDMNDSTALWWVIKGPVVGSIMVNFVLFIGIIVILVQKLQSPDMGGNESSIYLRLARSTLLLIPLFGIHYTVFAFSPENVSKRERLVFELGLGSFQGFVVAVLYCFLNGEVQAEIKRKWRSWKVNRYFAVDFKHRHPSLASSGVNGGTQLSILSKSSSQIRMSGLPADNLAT
Kind of test: CBS assay, antagonism of P27-induced cAMP in SY5Y_CBS cells. Format: cell-based. The conditions noted are these: for antagonist potency vs P6-27: 0.2 nM P27 (EC80); for IC50: IC50 against P27, 0.2 nM P27 (EC80), n = 3, Figure 7C. From the text: (§1) A single clone of the SH-SY5Y cell line stably expressing a cAMP biosensor (SY5Y_CBS) was generated as previously described for HEK293_CBS and NS-1_CBS cells, using the retroviral vector pLHCX containing the cAMP biosensor and a hygromycin resistance gene. A HEK293_CBS_hPAC1 cell clone was generated by transducing HEK293_CBS cells with the lentiviral vector pLX304 (GeneCopoeia, Rockville, MD) encoding the human PAC1hop (PAC1; GenBank accession no. BC143679) and a blasticidin resistance gene . Following transduction, cells were selected with the appropriate antibiotics (hygromycin or blasticidin) for 2 weeks. Single-cell clones were subsequently isolated by limiting dilution and assessed for PACAP-induced cAMP production using concentration-response assays.
(§2) The cyclic AMP biosensor (CBS) assay was performed using Gibco CO2-independent medium (ThermoFisher, catalog #18045-088). HEK293_CBS_hPAC1 or SY5Y_CBS cells were seeded in 96-well black/clear-bottom plates (MidSci, Fenton, MO) at a density of 6,000 cells per well and incubated overnight. The following day, the medium in each well was aspirated and replaced with fresh medium containing 1.5 mg/mL D-luciferin potassium salt substrate (Gold Biotechnology, St. Louis, MO) and 500 μM isobutyl-1-methylxanthine (IBMX), followed by incubation at 37 °C for 1 hour. Cells were then pre-treated with antagonists for 10 minutes before the addition of agonists (PACAP or forskolin). Plates were incubated at 37 °C for 1 hour, then brought to room temperature and equilibrated for 30 minutes. Luminescence was measured using a GloMax plate reader (Promega, Madison, WI).
For the high-throughput CBS screening assays, cells were plated at 2,000 (HEK293_CBS_hPAC1) or 3,000 (SY5Y_CBS) cells per well in […] of Gibco CO2-independent medium, in white 1,536-well tissue culture treated plates. After overnight incubation at 37 °C and 5% CO2, […] of luciferin/IBMX solution was added to the wells (final concentrations of 500 μM each) and plates were incubated at 37 °C for 1 hour. SMOLs (22.5 nL) were transferred to the assay plate, using a pintool device (HEK293 screen) or an ECHO acoustic liquid handler (Beckman Coulter, Brea, CA, SY5Y screen), to final concentrations (4 concentrations per compound) between 0.5 and 30 μM and cells were incubated at 37 °C for 1 hour (HEK293 screen) or 10 minutes (SY5Y screen). […] For forskolin counterscreening in SY5Y cells, forskolin instead of peptide was dispensed to the plate at a final concentration of 5 μM.
(§3) GraphPad Prism ver. 9.0 or 10.0 (GraphPad Software Inc, Boston, MA) was used for data analysis. Concentration response curves were created using a four parameter logistic regression model. EC80 and IC50 parameters were obtained using non-linear regression curve fitting tools. EC80 was calculated as the effective concentration of the agonist required to produce 80% of the maximal response. IC50 was calculated as the concentration of the antagonist that produced 50% of the response induced by an agonist (either PACAP or forskolin) in the absence of the antagonist. Seven or eight different concentrations and three technical replicates per concentration were used for curve fitting. All data are presented as mean ± standard error of the mean (SEM).

Test [2] concerns the target T1, PAC1 (endogenous, mainly PAC1null, SH-SY5Y). Kind of test: CBS assay, antagonism of P38-induced cAMP in SY5Y_CBS cells. In kind it is cell-based. The conditions noted are these: for IC50: three independent experiments; for P38-induced cAMP elevation blocked to: 0.2 nM P38, SY5Y_CBS, n = 3.
Source text: as §1, §2, §3

Setting [3] is: IC50 against P38 (Figure 9C), 0.2 nM P38, CBS assay, mean ± SEM.
The mark [4] stands for this setting: 0.2 nM P38 (EC80), SY5Y_CBS, mean ± SEM, Figure 11B, read-out: IC50 of P6-38 C-terminal mutants in CBS assay.

Positions of bridges follow the written chain, without caps; N, C: chain ends. Non-standard residues stand in square brackets, D forms with d. Residues, ends and D or L forms follow the SMILES beside them. No end group written: not given here. Cha = N[C@@H](CC1CCCCC1)C(=O)O

Turning to `CSCC[C@@H]1NC(=O)[C@@H](NC(=O)[C@H](CCCCN)NC(=O)[C@H](CCCNC(=N)N)NC(=O)[C@H](Cc2ccc(O)cc2)NC(=O)[C@H](CCCNC(=N)N)NC(=O)[C@H](CO)NC(=O)[C@H](Cc2ccc(O)cc2)NC(=O)[C@H](CO)NC(=O)[C@H](CC(=O)O)NC(=O)[C@@H](NC(=O)[C@@H](N)Cc2ccccc2)[C@@H](C)O)CCC(=O)NCCCC[C@@H](C(=O)N[C@@H](CCCCN)C(=O)N[C@@H](Cc2ccc(O)cc2)C(=O)N[C@@H](CC(C)C)C(=O)N[C@@H](C)C(=O)N[C@@H](C)C(=O)N[C@H](C(=O)N[C@@H](CC2CCCCC2)C(N)=O)C(C)C)NC(=O)[C@H](C(C)C)NC(=O)[C@H](C)NC1=O` [P6-27Lbx2, (c[E16,K20], Cha27)P6-27] (H-FTDSYSRYRKEMAVKKYLAAV[Cha]-NH2; lactam 11-15; N-terminus assumed), in test [1], the “antagonist potency vs P6-27” value is reported as “did not increase the inhibitory effect of P6-27” and the IC50 was greater than 1 µM.

Regarding FTDSYSRYRKQMAVKKYLAAVLG-NH2 [P6-28], in test [2] (0.2 nM P38 (EC80), SY5Y_CBS, Figure 11B, read-out: IC50 of P6-38 C-terminal mutants in CBS assay), the IC50 is greater than 1 µM.

In turn, `CSCC[C@H](NC(=O)[C@H](CCC(N)=O)NC(=O)[C@H](CCCCN)NC(=O)[C@H](CCCNC(=N)N)NC(=O)[C@H](Cc1ccc(O)cc1)NC(=O)[C@H](CCCNC(=N)N)NC(=O)[C@H](CO)NC(=O)[C@H](Cc1ccc(O)cc1)NC(=O)[C@H](CO)NC(=O)[C@H](CC(=O)O)NC(=O)[C@@H](NC(=O)[C@@H](N)Cc1ccccc1)[C@@H](C)O)C(=O)N[C@@H](C)C(=O)N[C@H](C(=O)N[C@@H](CCCCN)C(=O)N[C@@H](CCCCN)C(=O)N[C@@H](Cc1ccc(O)cc1)C(=O)N[C@@H](CC1CCCCC1)C(=O)N[C@@H](C)C(=O)N[C@H]1CCC(=O)NCCCC[C@@H](C(=O)N[C@@H](CCCNC(=N)N)C(=O)N[C@@H](Cc2ccc(O)cc2)C(=O)N[C@@H](CCCCN)C(=O)N[C@@H](CCC(N)=O)C(=O)N[C@@H](CCCNC(=N)N)C(=O)N[C@H](C(=O)N[C@@H](CCCCN)C(=O)N[C@@H](CC(N)=O)C(=O)N[C@@H](CCCCN)C(N)=O)C(C)C)NC(=O)CNC(=O)[C@H](CC(C)C)NC(=O)[C@H](C(C)C)NC1=O)C(C)C` [P6-38Lbx1, (c[E25,K29], Cha23)P6-38] (H-FTDSYSRYRKQMAVKKY[Cha]AEVLGKRYKQRVKNK-NH2; lactam 20-24) gave a 50% inhibitory concentration (IC50) in test [2] (setting [3]) of 0.061 ± 0.012 µM.

With `CSCC[C@@H]1NC(=O)[C@@H](NC(=O)[C@H](CCCCN)NC(=O)[C@H](CCCNC(=N)N)NC(=O)[C@H](Cc2ccc(O)cc2)NC(=O)[C@H](CCCNC(=N)N)NC(=O)[C@H](CO)NC(=O)[C@H](Cc2ccc(O)cc2)NC(=O)[C@H](CO)NC(=O)[C@H](CC(=O)O)NC(=O)[C@@H](NC(=O)[C@@H](N)Cc2ccccc2)[C@@H](C)O)CCC(=O)NCCCC[C@@H](C(=O)N[C@@H](CCCCN)C(=O)N[C@@H](Cc2ccc(O)cc2)C(=O)N[C@@H](CC(C)C)C(=O)N[C@@H](C)C(=O)N[C@@H](C)C(=O)N[C@H](C(=O)N[C@@H](CC(C)C)C(N)=O)C(C)C)NC(=O)[C@H](C(C)C)NC(=O)[C@H](C)NC1=O` [P6-27Lb, (c[E16,K20])P6-27] (H-FTDSYSRYRKEMAVKKYLAAVL-NH2; lactam 11-15; N-terminus assumed), in test [1], the “antagonist potency vs P6-27” value was “did not increase the inhibitory effect of P6-27” and the IC50 is greater than 1 µM.

Consider `CSCC[C@@H]1NC(=O)[C@@H](NC(=O)[C@H](CCCCN)NC(=O)[C@H](CCCNC(=N)N)NC(=O)[C@H](Cc2ccc(O)cc2)NC(=O)[C@H](CCCNC(=N)N)NC(=O)[C@H](CO)NC(=O)[C@H](Cc2ccc(O)cc2)NC(=O)[C@H](CO)NC(=O)[C@H](CC(=O)O)NC(=O)[C@@H](NC(=O)[C@@H](N)Cc2ccccc2)[C@@H](C)O)CCC(=O)NCCCC[C@@H](C(=O)N[C@@H](CCCCN)C(=O)N[C@@H](Cc2ccc(O)cc2)C(=O)N[C@@H](CC2CCCCC2)C(=O)N[C@@H](C)C(=O)N[C@@H](C)C(=O)N[C@H](C(=O)N[C@@H](CC(C)C)C(N)=O)C(C)C)NC(=O)[C@H](C(C)C)NC(=O)[C@H](C)NC1=O` [P6-27Lbx1, (c[E16,K20], Cha23)P6-27] (H-FTDSYSRYRKEMAVKKY[Cha]AAVL-NH2; lactam 11-15; N-terminus assumed), for which, in test [1], the “antagonist potency vs P6-27” value is “did not increase the inhibitory effect of P6-27” and the IC50 was greater than 1 µM.

In the case of FTDSYSRYRKQMAVKKYLAAVL-NH2 [P6-27], the “P38-induced cAMP elevation blocked to” value in test [2] (P6-27 at 1 μM) was 50%; in test [2] (until the highest concentration tested (10 μM)) it was ~ 50%.

Take `CSCC[C@H](NC(=O)[C@H](CCC(N)=O)NC(=O)[C@H](CCCCN)NC(=O)[C@H](CCCNC(=N)N)NC(=O)[C@H](Cc1ccc(O)cc1)NC(=O)[C@H](CCCNC(=N)N)NC(=O)[C@H](CO)NC(=O)[C@H](Cc1ccc(O)cc1)NC(=O)[C@H](CO)NC(=O)[C@H](CC(=O)O)NC(=O)[C@@H](NC(=O)[C@@H](N)Cc1ccccc1)[C@@H](C)O)C(=O)N[C@@H](C)C(=O)N[C@H](C(=O)N[C@@H](CCCCN)C(=O)N[C@@H](CCCCN)C(=O)N[C@@H](Cc1ccc(O)cc1)C(=O)N[C@@H](CC(C)C)C(=O)N[C@@H](C)C(=O)N[C@H]1CCC(=O)NCCCC[C@@H](C(=O)N[C@@H](CCCNC(=N)N)C(=O)N[C@@H](Cc2ccc(O)cc2)C(=O)N[C@@H](CCCCN)C(=O)N[C@@H](CCC(N)=O)C(=O)N[C@@H](CCCNC(=N)N)C(=O)N[C@H](C(=O)N[C@@H](CCCCN)C(=O)N[C@@H](CC(N)=O)C(=O)N[C@@H](CCCCN)C(N)=O)C(C)C)NC(=O)CNC(=O)[C@H](CC(C)C)NC(=O)[C@H](C(C)C)NC1=O)C(C)C` [P6-38Lb, (c[E25,K29])P6-38] (H-FTDSYSRYRKQMAVKKYLAEVLGKRYKQRVKNK-NH2; lactam 20-24): in test [2] (setting [3]), the 50% inhibitory concentration (IC50) amounted to 0.219 ± 0.028 µM.

In the case of FTDSYSRYRKQMAVKKYLAAVLGKRYK-NH2 [P6-32], in test [2] (setting [4]), the 50% inhibitory concentration (IC50) came to 0.072 ± 0.017 µM.

Consider “FTDSYSRYRKQMAVKKYLAAVLGKRYKQRVK-NH2 [P6-36]”, for which the IC50 in test [2] (setting [4]) stood at 0.09 ± 0.013 µM.

Usually IC50 stands for the concentration that inhibits the measured activity by half.
